What was measured:
[1] = tested on: Trypanosoma brucei rhodesiense; test: Antitrypanosomal activity against Trypanosoma brucei rhodesiense IL-1501 incubated for 69 hrs by AlamarBlue assay; type: functional, organism-based; settings: IL-1501, 69 h
[2] = tested on: Trypanosoma brucei brucei; test: Antitrypanosomal activity against Trypanosoma brucei brucei 221 incubated for 69 hrs by AlamarBlue assay; type: functional, organism-based; settings: Trypanosoma brucei, 221, 69 h
WI-38 = test: Cytotoxicity against human WI38 cells incubated for 72 hrs by MTT assay; type: cell-based; settings: WI-38, 72 h
[3] = Selectivity ratio of IC50 for human WI38 cells to IC50 for Trypanosoma brucei rhodesiense IL-1501; type: toxicity; settings: read-out: Ratio IC50
[4] = Selectivity ratio of IC50 for human WI38 cells to IC50 for Trypanosoma brucei brucei 221; type: toxicity; settings: read-out: Ratio IC50

IC50 [1]	IC50 [2]	Compound	IC50 (WI-38)	selectivity ratio [3]	selectivity ratio [4]
1.5 µM	1.5 µM	CC[C@@H](C)[C@H](C(=O)N1CCC[C@H]1C(=O)N1C(=O)C=C(OC)[C@@H]1C(C)C)N(C)C(=O)[C@@H]1CCCN1C(=O)[C@H](C(C)C)N(C)C(=O)[C@@H](Cc1ccccc1)NC(=O)[C@H](Cc1ccccc1)N(C)C	18 µM	> 10	> 10
> 20 µM	> 20 µM	CC[C@@H](C)[C@H](C(=O)N1CCC[C@H]1C(=O)O)N(C)C(=O)[C@@H]1CCCN1C(=O)[C@H](C(C)C)N(C)C(=O)[C@@H](Cc1ccccc1)NC(=O)[C@H](Cc1ccccc1)N(C)C	> 20 µM		
> 20 µM	> 20 µM	CC[C@@H](C)[C@H](C(=O)O)N(C)C(=O)[C@@H]1CCCN1C(=O)[C@H](C(C)C)N(C)C(=O)[C@@H](Cc1ccccc1)NC(=O)[C@H](Cc1ccccc1)N(C)C	> 20 µM		

— ChEMBL document CHEMBL4627382, “Iheyamides A-C, Antitrypanosomal Linear Peptides Isolated from a Marine Dapis sp. Cyanobacterium” (J Nat Prod, 2020)
